# “And” between values parts separate entries of the source, which are not always exact repeats. Identical values can stand only once. “Also recorded” adds a separate entry of the source. Like-named read-outs stand apart in the source and are kept apart here.
# Assays:
# [1] = target: T1, JAK2(JH1domain-catalytic) (Homo sapiens, UniProt O60674); assay: KINOMEscan; type: binding
# T1 construct: JAK2(JH1domain-catalytic); purchased Eurofins DiscoverX KINOMEscan (scanEDGE, 97 kinases)
# [2] = target: T2, JAK3(JH1domain-catalytic) (Homo sapiens, UniProt P52333); assay: KINOMEscan; type: binding
# T2 construct: JAK3(JH1domain-catalytic); purchased Eurofins DiscoverX KINOMEscan (scanEDGE, 97 kinases)
# JNK2 = JNK2 (Homo sapiens, UniProt P45984); assay: biochemical; type: binding; conditions: 10000 nM; read-out: Percent Control
# EP3R = EP3R (Homo sapiens, UniProt P43115); assay: Radioligand (3H-PGE2) displacement assay at EP3R; type: binding
# EP4R = target: T3, EP4R (Homo sapiens, UniProt P35408); assay: cell-based; conditions: read-out: cAMP Assay KB
# T3 construct: Tango fusion cassette (only 'tango' is printed); expressed in transfected cells; host or cells: HTLA cells (tTA-dependent luciferase reporter, β-arrestin2-TEV fusion)
# 97 human kinases = type: binding; conditions: 10 µM
# Excerpt: . […] This panel includes several adverse drug reaction receptors such as the serotonin receptor 5HT2b, M1 and M2 muscarinic receptors and adrenergic receptors. […]. page 7:
# Supplementary Figure 7: Non-GPCR off-target screening for 74. a)-e) Dose-response curves of 74 at […]
# proliferator-activated receptor gamma (PPARγ, Eurofins item G124). Data in a)-e) and g)-i) represent two technical replicates. Source data are provided as a Source Data file.
# (1 picture or pasted object on this page, not shown here)
# Description of Additional Supplementary Files
# File Name: Supplementary Data 1
# Description: List of all compounds described in this work.
# For each compound, the compound number, the virtual library code (ZINC / Design ID), the Enamine catalog code (Enamine catalog ID), 2D information (SMILES) and a brief description whether the compound was derived from virtual screening or optimization of initial hits (Set) are provided. For virtual screening compounds, the displacement of radiolabeled 3HPGE2 at 10 µM in the initial binding assay at […]
# For hit compounds, logIC50, IC50 and Ki in the EP4R PRESTO-Tango or EP4R Arrestin-BRET assays are shown. For lead compounds, the Kb in the EP4R cAMP Assay and Ki from the EP4R radioligand displacement assay are listed.
# File Name: Supplementary Data 2
# Description: Off-target screening of compound 74 against a panel of 97 human kinases (KINOMEscan, […]
# CDK3 = CDK3 (Homo sapiens, UniProt Q00526); assay: biochemical; type: binding; conditions: 10000 nM; read-out: Percent Control
# ERBB2 = ERBB2 (Homo sapiens, UniProt P04626); assay: biochemical; type: binding; conditions: 10000 nM; read-out: Percent Control
# TGFBR1 = TGFBR1 (Homo sapiens, UniProt P36897); assay: biochemical; type: binding; conditions: 10000 nM; read-out: Percent Control
# [3] = target: T4, prostaglandin D2 (PGD2) receptor (Homo sapiens, UniProt Q9Y5Y4); assay: Functional cAMP production assay, PGD2 receptor; type: cell-based
# T4 sequence (Q9Y5Y4 1-395): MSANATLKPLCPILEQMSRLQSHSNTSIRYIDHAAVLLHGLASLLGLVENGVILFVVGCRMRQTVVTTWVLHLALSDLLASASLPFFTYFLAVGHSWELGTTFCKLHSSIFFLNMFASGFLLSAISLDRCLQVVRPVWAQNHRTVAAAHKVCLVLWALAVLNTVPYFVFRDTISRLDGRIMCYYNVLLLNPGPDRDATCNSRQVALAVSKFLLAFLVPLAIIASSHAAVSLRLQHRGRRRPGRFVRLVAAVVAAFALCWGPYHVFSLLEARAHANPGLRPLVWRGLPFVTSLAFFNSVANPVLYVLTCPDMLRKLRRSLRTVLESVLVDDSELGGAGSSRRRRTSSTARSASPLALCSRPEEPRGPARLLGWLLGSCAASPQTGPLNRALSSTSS
# CSF1R = CSF1R (Homo sapiens, UniProt P07333); assay: biochemical; type: binding; conditions: 10000 nM; read-out: Percent Control
# mice [4] = type: in vivo; design: Paw Thickness / Paw thickness AVG 30 / Paw thickness AVG 60 / Paw thickness AVG 120: unit not given here; conditions: for Paw Thickness: duplicate readings; for Paw thickness %BL CARR: used for Figure 3E
# mice [5] = type: in vivo; conditions: absence of injury
# mice [6] = type: in vivo
# [7] = 10000 nM, read-out: Percent Control
# [8] = 30 min, Carrageenan 30 µg, Group Average of 5 mice
# [9] = 30 min, Carrageenan 30 µg, individual mouse
# [10] = 60 min, Carrageenan 30 µg, Group Average of 5 mice
# [11] = 60 min, Carrageenan 30 µg, individual mouse
# [12] = 120 min, Carrageenan 30 µg, Group Average of 5 mice
# [13] = 120 min, Carrageenan 30 µg, individual mouse
# [14] = 180 min, Carrageenan 30 µg, Group Average of 5 mice
# [15] = 180 min, Carrageenan 30 µg, individual mouse
# [16] = 24 hours, Carrageenan 30 µg, Group Average of 5 mice
# [17] = 24 hours, Carrageenan 30 µg, individual mouse
# T2 sequence (P52333 782-1124 limits assumed): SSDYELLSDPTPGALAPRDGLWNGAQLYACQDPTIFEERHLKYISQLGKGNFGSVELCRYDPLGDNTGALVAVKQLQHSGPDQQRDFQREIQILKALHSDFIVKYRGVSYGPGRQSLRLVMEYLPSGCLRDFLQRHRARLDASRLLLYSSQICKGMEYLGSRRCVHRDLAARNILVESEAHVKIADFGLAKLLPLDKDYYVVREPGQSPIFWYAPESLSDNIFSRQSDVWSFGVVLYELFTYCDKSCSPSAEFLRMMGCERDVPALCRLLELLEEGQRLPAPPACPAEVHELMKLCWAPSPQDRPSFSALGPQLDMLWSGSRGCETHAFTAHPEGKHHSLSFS
# T1 sequence (O60674 810-1132 limits assumed): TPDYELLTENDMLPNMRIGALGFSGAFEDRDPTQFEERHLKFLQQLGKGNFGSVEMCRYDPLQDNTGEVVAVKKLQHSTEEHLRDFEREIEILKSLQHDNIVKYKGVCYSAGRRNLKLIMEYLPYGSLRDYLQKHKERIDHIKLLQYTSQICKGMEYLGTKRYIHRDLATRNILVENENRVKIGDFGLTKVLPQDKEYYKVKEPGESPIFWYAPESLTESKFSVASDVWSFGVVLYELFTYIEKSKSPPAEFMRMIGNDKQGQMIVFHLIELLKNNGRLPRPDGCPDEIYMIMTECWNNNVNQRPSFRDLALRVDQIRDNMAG
# Sequence of CSF1R (P07333 20-972): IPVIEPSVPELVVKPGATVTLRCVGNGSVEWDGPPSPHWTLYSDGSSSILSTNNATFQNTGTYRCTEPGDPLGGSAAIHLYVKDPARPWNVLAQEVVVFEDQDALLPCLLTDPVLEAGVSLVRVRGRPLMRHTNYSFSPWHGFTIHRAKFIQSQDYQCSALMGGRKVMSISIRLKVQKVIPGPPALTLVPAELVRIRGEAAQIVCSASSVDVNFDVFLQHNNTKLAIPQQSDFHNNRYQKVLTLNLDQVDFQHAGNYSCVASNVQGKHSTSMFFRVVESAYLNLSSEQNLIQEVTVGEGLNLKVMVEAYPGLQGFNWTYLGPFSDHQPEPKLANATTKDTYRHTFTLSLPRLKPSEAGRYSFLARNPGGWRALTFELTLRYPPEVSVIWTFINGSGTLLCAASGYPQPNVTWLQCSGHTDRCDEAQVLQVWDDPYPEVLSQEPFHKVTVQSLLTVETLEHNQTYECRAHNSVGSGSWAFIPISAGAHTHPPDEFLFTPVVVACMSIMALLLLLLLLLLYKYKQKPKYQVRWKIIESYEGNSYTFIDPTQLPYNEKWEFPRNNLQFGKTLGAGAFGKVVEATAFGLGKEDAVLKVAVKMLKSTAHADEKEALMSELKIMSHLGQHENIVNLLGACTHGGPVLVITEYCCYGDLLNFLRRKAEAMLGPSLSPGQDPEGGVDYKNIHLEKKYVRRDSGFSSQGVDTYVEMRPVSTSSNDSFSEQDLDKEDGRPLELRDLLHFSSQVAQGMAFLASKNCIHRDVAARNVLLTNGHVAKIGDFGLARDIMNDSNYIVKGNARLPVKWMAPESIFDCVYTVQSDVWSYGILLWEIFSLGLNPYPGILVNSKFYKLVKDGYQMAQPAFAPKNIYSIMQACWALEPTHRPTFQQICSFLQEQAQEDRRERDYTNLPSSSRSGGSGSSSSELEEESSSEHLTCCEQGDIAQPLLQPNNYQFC
# Sequence of EP3R (P43115 whole entry): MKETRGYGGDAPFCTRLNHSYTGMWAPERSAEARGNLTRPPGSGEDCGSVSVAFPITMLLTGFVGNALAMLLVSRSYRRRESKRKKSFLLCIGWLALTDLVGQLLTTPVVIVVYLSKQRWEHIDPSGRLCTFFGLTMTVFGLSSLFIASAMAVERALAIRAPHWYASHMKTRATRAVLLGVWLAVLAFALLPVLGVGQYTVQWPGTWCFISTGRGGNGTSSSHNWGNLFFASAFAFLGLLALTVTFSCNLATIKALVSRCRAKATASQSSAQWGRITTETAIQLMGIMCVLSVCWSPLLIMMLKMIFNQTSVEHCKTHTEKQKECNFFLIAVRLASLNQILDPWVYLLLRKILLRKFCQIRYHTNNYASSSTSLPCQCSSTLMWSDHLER
# Sequence of CDK3 (Q00526 whole entry): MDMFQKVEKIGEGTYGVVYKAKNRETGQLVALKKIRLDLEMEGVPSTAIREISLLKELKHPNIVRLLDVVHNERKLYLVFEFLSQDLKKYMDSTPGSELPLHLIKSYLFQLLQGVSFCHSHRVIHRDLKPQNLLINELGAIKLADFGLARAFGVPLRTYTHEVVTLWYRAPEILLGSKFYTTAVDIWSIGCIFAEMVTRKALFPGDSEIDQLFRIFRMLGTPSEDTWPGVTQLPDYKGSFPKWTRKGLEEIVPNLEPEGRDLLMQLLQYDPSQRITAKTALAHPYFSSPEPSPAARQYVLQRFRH
# Sequence of ERBB2 (P04626 23-1255): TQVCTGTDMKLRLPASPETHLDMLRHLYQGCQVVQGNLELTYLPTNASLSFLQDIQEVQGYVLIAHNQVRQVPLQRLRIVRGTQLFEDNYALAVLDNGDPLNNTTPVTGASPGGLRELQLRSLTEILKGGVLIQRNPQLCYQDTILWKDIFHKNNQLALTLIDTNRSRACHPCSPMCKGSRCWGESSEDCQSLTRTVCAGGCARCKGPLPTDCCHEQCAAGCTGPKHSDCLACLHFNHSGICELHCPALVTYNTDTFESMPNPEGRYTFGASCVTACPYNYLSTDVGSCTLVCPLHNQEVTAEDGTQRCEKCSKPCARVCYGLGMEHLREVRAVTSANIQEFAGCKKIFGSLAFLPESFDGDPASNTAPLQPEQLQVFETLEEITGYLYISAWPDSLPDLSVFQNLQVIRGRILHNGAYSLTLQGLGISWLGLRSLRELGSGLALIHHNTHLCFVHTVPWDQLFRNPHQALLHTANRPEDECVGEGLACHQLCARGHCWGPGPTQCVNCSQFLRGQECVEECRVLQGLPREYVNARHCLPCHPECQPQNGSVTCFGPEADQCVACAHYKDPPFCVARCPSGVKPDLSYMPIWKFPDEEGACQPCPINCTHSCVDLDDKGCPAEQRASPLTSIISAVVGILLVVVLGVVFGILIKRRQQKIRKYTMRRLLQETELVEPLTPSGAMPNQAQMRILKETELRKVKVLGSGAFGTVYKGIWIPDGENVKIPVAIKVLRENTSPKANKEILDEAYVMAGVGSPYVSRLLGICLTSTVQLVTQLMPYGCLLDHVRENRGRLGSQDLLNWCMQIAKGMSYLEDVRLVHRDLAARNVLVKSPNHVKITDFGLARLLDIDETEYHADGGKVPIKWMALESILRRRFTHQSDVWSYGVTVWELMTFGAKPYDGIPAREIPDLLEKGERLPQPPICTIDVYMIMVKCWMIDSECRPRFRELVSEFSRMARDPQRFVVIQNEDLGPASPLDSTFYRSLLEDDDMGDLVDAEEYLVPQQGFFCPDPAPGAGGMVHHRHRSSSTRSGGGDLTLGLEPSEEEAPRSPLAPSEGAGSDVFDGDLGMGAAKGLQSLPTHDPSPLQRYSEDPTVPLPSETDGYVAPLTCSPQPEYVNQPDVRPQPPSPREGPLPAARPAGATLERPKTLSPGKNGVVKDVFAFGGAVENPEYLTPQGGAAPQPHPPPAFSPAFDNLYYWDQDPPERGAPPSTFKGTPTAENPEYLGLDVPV
# Sequence of JNK2 (P45984 whole entry): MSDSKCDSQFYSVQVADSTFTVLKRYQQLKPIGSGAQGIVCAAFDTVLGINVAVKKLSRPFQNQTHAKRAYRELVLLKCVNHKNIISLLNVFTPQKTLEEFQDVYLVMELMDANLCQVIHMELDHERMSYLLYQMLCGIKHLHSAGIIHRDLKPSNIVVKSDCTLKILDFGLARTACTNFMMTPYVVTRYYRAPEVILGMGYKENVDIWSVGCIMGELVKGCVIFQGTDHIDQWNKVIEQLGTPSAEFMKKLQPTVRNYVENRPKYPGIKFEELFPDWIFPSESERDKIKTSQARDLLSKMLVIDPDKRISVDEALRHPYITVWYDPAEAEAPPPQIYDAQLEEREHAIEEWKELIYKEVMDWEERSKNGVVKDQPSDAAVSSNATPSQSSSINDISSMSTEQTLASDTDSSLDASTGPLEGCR
# Sequence of TGFBR1 (P36897 34-503): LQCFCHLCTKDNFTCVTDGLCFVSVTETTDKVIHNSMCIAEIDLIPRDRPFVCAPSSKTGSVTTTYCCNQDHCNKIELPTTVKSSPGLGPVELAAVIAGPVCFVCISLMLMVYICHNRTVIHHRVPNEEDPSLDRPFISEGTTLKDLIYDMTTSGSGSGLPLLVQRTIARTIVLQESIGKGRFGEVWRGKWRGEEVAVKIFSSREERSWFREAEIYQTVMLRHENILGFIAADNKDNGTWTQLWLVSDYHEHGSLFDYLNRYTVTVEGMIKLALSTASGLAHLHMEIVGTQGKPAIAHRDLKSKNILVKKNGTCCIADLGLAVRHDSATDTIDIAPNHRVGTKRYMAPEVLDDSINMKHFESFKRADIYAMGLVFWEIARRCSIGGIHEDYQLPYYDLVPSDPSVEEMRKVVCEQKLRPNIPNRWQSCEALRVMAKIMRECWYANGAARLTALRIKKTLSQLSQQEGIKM
# T3 sequence (P35408 whole entry, the tested form may be a part): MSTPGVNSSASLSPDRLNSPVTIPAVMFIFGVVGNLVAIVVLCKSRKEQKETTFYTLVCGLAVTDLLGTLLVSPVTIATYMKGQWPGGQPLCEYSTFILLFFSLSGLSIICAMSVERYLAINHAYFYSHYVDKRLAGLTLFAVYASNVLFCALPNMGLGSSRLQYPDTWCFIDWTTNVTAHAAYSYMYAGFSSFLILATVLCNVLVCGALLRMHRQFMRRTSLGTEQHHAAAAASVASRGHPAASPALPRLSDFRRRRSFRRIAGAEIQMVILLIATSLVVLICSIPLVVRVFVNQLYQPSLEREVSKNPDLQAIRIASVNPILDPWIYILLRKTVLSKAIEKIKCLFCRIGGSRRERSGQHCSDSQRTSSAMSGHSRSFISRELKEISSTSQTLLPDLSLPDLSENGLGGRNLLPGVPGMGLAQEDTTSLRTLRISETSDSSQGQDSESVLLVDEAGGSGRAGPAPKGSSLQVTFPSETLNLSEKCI
smiles,measurement,setting,value
"O=C(O)C1CCC2(CC1)CC(Nc1ncnc3[nH]c4c(F)cccc4c13)C2 (centres unmarked) [Compound 74, OC(=O)C1CCC2(CC(C2)NC=3N=CN=C4NC=5C(F)=CC=CC5C34)CC1]",remaining binding at 10 µM,[1]; [7],0%
same,Signal (qPCR),"[1]; JAK2, [Compound] 0.001 nM",2.42e-6 and 2.15e-6
same,Signal (qPCR),"[1]; JAK2, [Compound] 0.01 nM",2.35e-6 and 2.44e-6
same,Signal (qPCR),"[1]; JAK2, [Compound] 0.169 nM",2.62e-6 and 2.24e-6
same,Signal (qPCR),"[1]; JAK2, [Compound] 0.508 nM",2.26e-6 and 2.31e-6
same,Signal (qPCR),"[1]; JAK2, [Compound] 1.52 nM",2.56e-6 and 2.32e-6
same,Signal (qPCR),"[1]; JAK2, [Compound] 13.7 nM",2.33e-6 and 2.17e-6
same,Signal (qPCR),"[1]; JAK2, [Compound] 41.2 nM",2.15e-6 and 2.16e-6
same,Signal (qPCR),"[1]; JAK2, [Compound] 123 nM",2.08e-6 and 2e-6
same,Signal (qPCR),"[1]; JAK2, [Compound] 370 nM",1.2e-6
same,Signal (qPCR),"[1]; JAK2, [Compound] 3330 nM",1.6e-7 and 1.8e-7
same,Signal (qPCR),"[1]; JAK2, [Compound] 10000 nM",4e-8
same,remaining binding at 10 µM,[2]; [7],0.25%
same,Signal (qPCR),"[2]; JAK3, [Compound] 0.0001 nM",1.3e-6 and 8.87e-7
same,Signal (qPCR),"[2]; JAK3, [Compound] 0.001 nM",1.24e-6 and 1.2e-6
same,Signal (qPCR),"[2]; JAK3, [Compound] 0.01 nM",1.37e-6 and 1.42e-6
same,Signal (qPCR),"[2]; JAK3, [Compound] 0.169 nM",1.07e-6 and 1.21e-6
same,Signal (qPCR),"[2]; JAK3, [Compound] 0.508 nM",1.06e-6 and 1.26e-6
same,Signal (qPCR),"[2]; JAK3, [Compound] 1.52 nM",1.19e-6 and 1.38e-6
same,Signal (qPCR),"[2]; JAK3, [Compound] 4.57 nM",1.36e-6 and 1.47e-6
same,Signal (qPCR),"[2]; JAK3, [Compound] 13.7 nM",1.11e-6 and 1.19e-6
same,Signal (qPCR),"[2]; JAK3, [Compound] 41.2 nM",1.18e-6 and 1.3e-6
same,Signal (qPCR),"[2]; JAK3, [Compound] 123 nM",1.07e-6 and 1.06e-6
same,Signal (qPCR),"[2]; JAK3, [Compound] 370 nM",8.09e-7 and 7.97e-7
same,Signal (qPCR),"[2]; JAK3, [Compound] 3330 nM",1.07e-7
same,Signal (qPCR),"[2]; JAK3, [Compound] 10000 nM",2.42e-8 and 3.31e-8
same,remaining activity at 10 µM,JNK2,41%
same,binding to EP3 receptor,EP3R,no binding
same,Kb,EP4R,16 nM
same,inhibition in kinase panel,97 human kinases,notable inhibition of five kinases
same,remaining activity at 10 µM,CDK3,100%
same,remaining activity at 10 µM,ERBB2,49%
same,remaining activity at 10 µM,TGFBR1,54%
same,off-target activity at prostaglandin D2 receptor,[3],no off-target activities
same,remaining activity at 10 µM,CSF1R,69%
"O=C([O-])C1CCC2(CC1)CC(Nc1ncnc3[nH]c4c(F)cccc4c13)C2.[Na+] (centres unmarked) [Compound 77, [Na+].[O-]C(=O)C1CCC2(CC(C2)NC=3N=CN=C4NC=5C(F)=CC=CC5C34)CC1]",effect on carrageenan-induced paw edema,"mice [4]; 30 mg/kg i.p., one day after carrageenan",significantly reduced
same,"Paw thickness %BL CARR, Group Average",mice [4]; [8],92.2% and 96.7%
same,"Paw thickness %Baseline, Group Average",mice [4]; [8],118.7% and 118.1%
same,"Paw thickness AVG 30, Group Average",mice [4]; [8],2.0
same,Paw thickness %Baseline,mice [4]; [9],122.7% and 124.6% and 120.5% and 111.5% and 114.1% and 116.5% and 122.2% and 107.4% and 119.7% and 124.9%
same,Paw thickness AVG 30,mice [4]; [9],2.0 and 2.2 and 2.1 and 1.9 and 1.8
same,Paw Thickness,mice [4]; [9],1.9 and 2.04 and 2.2 and 2.1 and 2.14 and 2.06 and 1.98 and 2.08 and 1.95 and 1.77 and 1.88 and 2 and 2.13 and 2.02
same,Paw thickness %BL CARR,mice [4]; [9],89.5% and 101.4% and 91.7% and 92.1% and 86.4% and 102.3% and 101.6% and 84.9% and 96.7% and 98.1%
same,"Paw thickness %BL CARR, Group Average",mice [4]; [10],91.8% and 95.5%
same,"Paw thickness %Baseline, Group Average",mice [4]; [10],118.2% and 116.8%
same,"Paw thickness AVG 60, Group Average",mice [4]; [10],2.0
same,Paw thickness %Baseline,mice [4]; [11],124.6% and 118.8% and 118.2% and 112.4% and 117.1% and 109.8% and 115.0% and 114.7% and 118.3% and 126.1%
same,Paw thickness AVG 60,mice [4]; [11],2.0 and 2.1 and 1.9
same,Paw Thickness,mice [4]; [11],2.1 and 1.9 and 2 and 2.02 and 1.97 and 1.98 and 2.05 and 2.09 and 2.2
same,Paw thickness %BL CARR,mice [4]; [11],90.9% and 96.7% and 89.9% and 92.8% and 88.6% and 96.4% and 95.6% and 90.7% and 99.1%
same,"Paw thickness %BL CARR, Group Average",mice [4]; [12],89.1% and 94.8%
same,"Paw thickness %Baseline, Group Average",mice [4]; [12],114.9% and 115.9%
same,"Paw thickness AVG 120, Group Average",mice [4]; [12],2.0
same,Paw thickness %Baseline,mice [4]; [13],126.2% and 111.6% and 112.4% and 111.0% and 113.2% and 111.3% and 115.8% and 115.9% and 114.2% and 122.2%
same,Paw thickness AVG 120,mice [4]; [13],2.0 and 1.9 and 2.1
same,Paw Thickness,mice [4]; [13],2 and 2.05 and 1.9 and 1.95 and 2.04 and 2.1 and 2.07 and 1.91 and 2.03 and 1.94 and 1.97
same,Paw thickness %BL CARR,mice [4]; [13],92.0% and 90.8% and 85.5% and 91.6% and 85.7% and 97.7% and 96.3% and 92.3% and 96.0%
same,"Paw thickness %BL CARR, Group Average",mice [4]; [14],89.9% and 92.7%
same,"Paw thickness %Baseline, Group Average",mice [4]; [14],115.8% and 113.3%
same,"Paw thickness AVG 180, Group Average",mice [4]; [14],2.0
same,Paw thickness %Baseline,mice [4]; [15],125.5% and 114.5% and 111.0% and 112.4% and 115.6% and 112.7% and 106.9% and 111.8% and 115.9% and 118.9%
same,Paw thickness AVG 180,mice [4]; [15],2.0 and 1.9
same,Paw Thickness,mice [4]; [15],2.03 and 2 and 1.95 and 1.9 and 2.09 and 2.02 and 1.91 and 1.99 and 1.96
same,Paw thickness %BL CARR,mice [4]; [15],91.6% and 93.2% and 84.4% and 92.8% and 87.5% and 99.0% and 88.9% and 88.4% and 93.7% and 93.4%
same,"Paw thickness %BL CARR, Group Average",mice [4]; [16],85.7% and 94.0%
same,"Paw thickness %Baseline, Group Average",mice [4]; [16],110.4% and 114.8%
same,"Paw thickness AVG 24h, Group Average",mice [4]; [16],1.9 and 2.0
same,Paw thickness %Baseline,mice [4]; [17],118.4% and 111.0% and 109.2% and 105.9% and 107.4% and 115.6% and 114.7% and 114.5% and 120.1%
same,Paw thickness AVG 24h,mice [4]; [17],1.9 and 1.8 and 2.0
same,Paw Thickness,mice [4]; [17],1.9 (2×) and 1.83 and 2 and 1.92 and 1.87 and 1.84 and 1.8 and 1.85 and 1.93 and 1.95 (2×)
same,Paw thickness %BL CARR,mice [4]; [17],86.4% and 90.3% and 83.1% and 87.4% and 81.3% and 101.5% and 90.8% and 90.7% and 92.5% and 94.3%
same,effect on baseline mechanical thresholds,mice [5],no effect
same,"PGE2-induced allodynia, mechanical threshold (von Frey)","mice [6]; 30 mg/kg IP, 30 min before 10 µg intraplantar PGE2, individual animals",121.3 and 118.3 and 44.9 and 101.1 and 46.9
same,effect on PGE2-induced mechanical hypersensitivity,"mice [6]; mouse, in vivo",dose-dependently prevented mechanical hypersensitivity; also recorded: dose-dependently reduces mechanical allodynia

# — PMC10700596 (Nature Communications, 2023)
